Assay results published in patent US6710047B2, “Phthalazines with angiogenesis inhibiting activity” (Novartis AG, priority 1997, dated 2004).
Structures can show the parent of a compound that is named as a salt. Where two headings read alike, the source gives them in different places.

Key:
PDGF-receptor kinase = experiment: Inhibition of PDGF-receptor kinase (method of Trinks et al.); type: biochemical
Protocol: An inhibitory effect can also be found especially on PDGF-receptor kinase, which is determined according to the method described by Trinks et al. (see J. Med. Chem. 37(7): 1015-27 [1994]). Inhibitory activity is shown here in the micromolar range using a compound of formula I (or an N-oxide thereof); […]

[1] = target: T1, Flt-1 VEGF-receptor tyrosine kinase (Homo sapiens, UniProt P17948); experiment: Test for activity against Flt-1 VEGF-receptor tyrosine kinase
T1 sequence (P17948 827-1158 limits assumed): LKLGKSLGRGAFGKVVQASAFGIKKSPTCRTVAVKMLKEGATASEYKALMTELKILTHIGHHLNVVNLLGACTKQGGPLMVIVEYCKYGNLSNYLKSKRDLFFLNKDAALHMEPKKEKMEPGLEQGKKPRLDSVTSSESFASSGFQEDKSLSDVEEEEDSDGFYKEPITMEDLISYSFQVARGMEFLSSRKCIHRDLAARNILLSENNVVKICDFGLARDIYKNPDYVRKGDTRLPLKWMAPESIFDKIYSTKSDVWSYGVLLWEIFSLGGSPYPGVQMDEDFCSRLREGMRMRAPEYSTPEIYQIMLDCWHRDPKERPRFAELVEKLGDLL
Protocol: Test for activity against VEGF-receptor tyrosine kinase. The test is conducted using Flt-1 VEGF-receptor tyrosine kinase. […] The reaction is then ended by the addition of 10 μl 0.25 M ethylenediaminetetraacetate (EDTA) pH 7. Using a multichannel dispenser (LAB SYSTEMS, USA), an aliquot of 20 μl is applied to a PVDF (=polyvinyl difluoride) Immobilon P membrane (Millipore, USA), incorporating a Millipore microtiter filter manifold, and connected to a vacuum.
The test is conducted using Flt-1 VEGF-receptor tyrosine kinase, as described hereinabove.

Row | SMILES | IC50 (PDGF-receptor kinase) | melting point | IC50 [1] | IC50 ([1]; kinase domain of Flt-1, poly(Glu,Tyr) 4:1, 8 μM [33P]-ATP, 15 minutes at room temperature)
1 | Clc1ccc(Nc2nnc(Cc3ccncc3)c3ccccc23)cc1 [Example 1, 1-(4-Chloroanilino)-4-(4-pyridylmethyl)phthalazine dihydrochloride] | ~1000 nM |  |  | 
2 | Clc1ccc(Nc2nnc(Cc3ccncc3)c3ccccc23)cc1Cl [Example 21, 1-(3,4-Dichloroanilino)-4-(4-pyridylmethyl)phthalazine] |  | 249 to 250 °C | 410 nM | 
3 | COc1ccc(Nc2nnc(Cc3ccncc3)c3ccccc23)cc1Cl [Example 23, 1-(3-Chloro-4-methoxyanilino)-4-(4-pydridylmethyl)phthalazine] |  | 195 to 197 °C | 515 nM | 
4 | N#Cc1ccc(Nc2nnc(Cc3ccncc3)c3ccccc23)cc1 [Example 24, 1-(4-Cyanoanilino)-4-(4-pyridylmethyl)phthalazine] |  | 228 to 230 °C | 666 nM | 
5 | Cc1cccc(Nc2nnc(Cc3ccncc3)c3ccccc23)c1 [Example 43, 1-(3-Methylanilino)-4-(4-pyridylmethyl)phthalazine] |  | 141 to 143 °C | 9070 nM | 
6 | CCOc1ccc(Nc2nnc(Cc3ccncc3)c3ccccc23)cc1 [Example 44E, 1-(4-Ethoxyanilino)-4-(4-pyridylmethyl)phthalazine] |  | 223 to 224 °C | 490 nM | 
7 | Cc1cc(Cc2nnc(Nc3ccc(Cl)cc3)c3ccccc23)ccn1 [Example 44F, 1-(4-Chloroanilino)-4-[(2-methyl-4-pyridyl)methyl]phthalazine] |  | 158 to 159 °C |  | 624 nM
8 | Clc1ccc(Nc2nnc(Cc3ccncc3)c3c2CCCC3)cc1 [Example 44H, 1-(4-Chloroanilino) 4-(4-pyridylmethyl)-5,6,7,8-tetrahydrophthalazine] |  | 181 to 183 °C | 11400 nM | 
9 | Oc1cccc(Oc2nnc(Cc3ccncc3)c3ccccc23)c1 [Example 56, 1-(3-Hydroxyphenoxy)-4-(4-pyridylmethyl)phthalazine] |  | 206 to 207 °C | 1000 nM | 
10 | c1ccc2c(NC3CCCCC3)nnc(Cc3ccncc3)c2c1 [Example 57, 1-Cyclohexylamino-4-(4-pyridylmethyl)phthalazine] |  | 137 to 139 °C | 16000 nM | 
11 | c1ccc2c(NC3CCCC3)nnc(Cc3ccncc3)c2c1 [Example 58, 1-Cyclopentylamino-4-(4-pyridylmethyl)phthalazine] |  | 163 to 165 °C | 7300 nM | 
12 | Clc1ccc(Nc2nnc(Cc3ccncn3)c3ccccc23)cc1 [Example 66, 1-(4-Chloroanilino)-4-(4-pyrimidinylmethyl)phthalazine] |  | 174 to 176 °C | 2400 nM | 
13 | CCc1cccc(Nc2nnc(Cc3ccncc3)c3ccccc23)c1 [Example 67E] |  | 143 to 144 °C | 440 nM | 
14 | CCOc1cccc(Nc2nnc(Cc3ccncc3)c3ccccc23)c1 [Example 67F] |  | 193 to 195 °C | 1200 nM | 
15 | FC(F)(F)Oc1cccc(Nc2nnc(Cc3ccncc3)c3ccccc23)c1 [Example 67H] |  | 176 to 178 °C | 615 nM | 
16 | CC(=O)c1ccc(Nc2nnc(Cc3ccncc3)c3ccccc23)cc1O [Example 69] |  | 234 to 236 °C | 742 nM | 
17 | Cc1ccc(Oc2nnc(Cc3ccncc3)c3ccccc23)cc1 [Example 72C] |  | 175 to 176 °C | 747 nM | 
18 | COc1ccc(Oc2nnc(Cc3ccncc3)c3ccccc23)cc1 [Example 72D] |  | 194 to 196 °C | 593 nM | 
19 | Clc1ccc(Sc2nnc(Cc3ccncc3)c3ccccc23)cc1 [Example 72E] |  | 204 to 206 °C | 1200 nM | 
20 | Clc1ccc(Nc2nnc(Cc3ccncc3)c3cccnc23)cc1 [Example 74, 8-(4-Chloroanilino)-5-(4-pyridylmethyl)pyrido[2,3-d]pyridazine] |  | 196 to 197 °C | 1000 nM | 
21 | Clc1ccc(Nc2nnc(Cc3ccncc3)c3cnccc23)cc1 [Example 75, 1-(4-Chloroanilino)-4-(4-pyridylmethyl)pyrido[3,4-d]pyridazine] |  | 227 to 228 °C | 1000 nM | 
22 | Clc1ccc(Nc2nnc(Cc3ccncc3)c3ccncc23)cc1 [Example 76, 4-(4-Chloroanilino)-1-(4-pyridylmethyl)pyrido[3,4-d]pyridazine] |  | 220 to 221 °C | 3200 nM | 

Now from value to compound:

Row | IC50 (PDGF-receptor kinase) | melting point | IC50 [1] | IC50 ([1]; kinase domain of Flt-1, poly(Glu,Tyr) 4:1, 8 μM [33P]-ATP, 15 minutes at room temperature) | SMILES
23 |  | 201 to 202 °C | 180 nM |  | Brc1ccc(Nc2nnc(Cc3ccncc3)c3ccccc23)cc1 [Example 22, 1-(4-Bromoanilino)-4-(4-pyridylmethyl)phthalazine]
24 |  | 152 to 153 °C | 154 nM |  | Cc1ccc(Nc2nnc(Cc3ccncc3)c3ccccc23)cc1 [Example 37, 1-(4-Methylanilino)-4-(4-pyridylmethyl)phthalazine]
25 |  | 185 to 187 °C | 211 nM |  | Fc1ccc(Nc2nnc(Cc3ccncc3)c3ccccc23)cc1Cl [Example 42, 1-(3-Chloro-4-fluoroanilino)-4-(4-pyridylmethyl)phthalazine]
26 |  | 163 to 164 °C | 277 nM |  | CCc1ccc(Nc2nnc(Cc3ccncc3)c3ccccc23)cc1 [Example 44A, 1-(4-Ethylanilino)-4-(4-pyridylmethyl)phthalazine]
27 |  | 180 to 181 °C | 234 nM |  | CCCc1ccc(Nc2nnc(Cc3ccncc3)c3ccccc23)cc1 [Example 44B, 1-(4-Propylanilino)-4-(4-pyridylmethyl)phthalazine]
28 |  | 210 to 212 °C | 42 nM |  | Cc1ccc(Nc2nnc(Cc3ccncc3)c3ccccc23)cc1F [Example 44C, 1-(3-Fluoro-4-methylanilino)-4-(4-pyridylmethyl)phthalazine]
29 |  | 157 to 159 °C | 317 nM |  | Fc1cc(Cl)ccc1Nc1nnc(Cc2ccncc2)c2ccccc12 [Example 44D, 1-(4-Chloro-2-fluoroanilino)-4-(4-pyridylmethyl)phthalazine]
30 |  | 180 to 181 °C | 345 nM |  | Cc1ccc(Nc2nnc(Cc3ccncc3)c3ccccc23)cc1C [Example 45]
31 |  | 174 to 175 °C | 349 nM |  | Cc1cc(C)cc(Nc2nnc(Cc3ccncc3)c3ccccc23)c1 [Example 46, 1-(3,5-Dimethylanilino)-4-(4-pyridylmethyl)phthalazine]
32 |  | 139 to 141 °C | 195 nM |  | Clc1ccc(Nc2nnc(OCc3ccncc3)c3ccccc23)cc1 [Example 50, 1-(4-Chloroanilino)-4-(4-pyridylmethoxy)phthalazine]
33 |  | 148 to 149 °C | 401 nM |  | CSc1cccc(Nc2nnc(Cc3ccncc3)c3ccccc23)c1 [Example 67D]
34 |  | 207 to 208 °C | 284 nM |  | Clc1ccc(Oc2nnc(Cc3ccncc3)c3ccccc23)cc1 [Example 72B]
35 |  | 220 to 222 °C | 397 nM |  | Clc1ccc(Nc2nnc(Cc3ccncc3)c3ncccc23)cc1 [Example 73, 5-(4-Chloroanilino)-8-(4-pyridylmethyl)pyrido[2,3-d]pyridazine]
